Experimental data: PubChem BioAssay (NCI)
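These data come from cells grown in 96-well plates and exposed to compound for 48 hours at five concentrations. Abbreviation: GI50, concentration required for 50% inhibition of growth. TGI marks complete inhibition of growth.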

Tests used:
Test in all cases: inhibition of tumour cell growth, NCI panel, 48 h
PC-3 prostate = tested on: PC-3 prostate
SF-268 CNS = tested on: SF-268 CNS
HT29 colon = tested on: HT29 colon
OVCAR-3 ovarian = tested on: OVCAR-3 ovarian
UACC-257 melanoma = tested on: UACC-257 melanoma
MOLT-4 leukemia = tested on: MOLT-4 leukemia
NCI-H23 lung = tested on: NCI-H23 lung
UACC-62 melanoma = tested on: UACC-62 melanoma
SR leukemia = tested on: SR leukemia
MCF7 breast = tested on: MCF7 breast

Molecule `CC[C@]1(O)C[C@@H]2CN(CCc3c([nH]c4ccccc34)[C@@](C(=O)OC)(c3cc4c(cc3OC)N(C)[C@H]3[C@@](O)(C(=O)OC)[C@H](OC(=O)CCCBr)[C@]5(CC)C=CCN6CC[C@]43[C@@H]65)C2)C1` has a GI50 (PC-3 prostate) of 14.1 nM, a TGI (PC-3 prostate) of 14.3 µM and a GI50 (SF-268 CNS) of 0.197 µM. For the same molecule, the TGI (SF-268 CNS) was 17.5 µM, the GI50 (HT29 colon) was less than 10 nM and the TGI (HT29 colon) was greater than 100 µM. For the same molecule, the GI50 (OVCAR-3 ovarian) was less than 10 nM, the TGI (OVCAR-3 ovarian) was less than 0.0126 µM and the GI50 (UACC-257 melanoma) was 3270 nM. The TGI (UACC-257 melanoma) was greater than 100 µM, the GI50 (MOLT-4 leukemia) was 26 nM and the TGI (MOLT-4 leukemia) was greater than 100 µM. For the same molecule, the GI50 (NCI-H23 lung) was less than 20.4 nM, the TGI (NCI-H23 lung) was greater than 100 µM and the GI50 (UACC-62 melanoma) was less than 10 nM. The TGI (UACC-62 melanoma) was greater than 100 µM, the GI50 (SR leukemia) was less than 10 nM and the TGI (SR leukemia) was greater than 100 µM. For the same molecule, the GI50 (MCF7 breast) was less than 10 nM and the TGI (MCF7 breast) was greater than 100 µM.

With `CCCC/C=C1/CCC(CN(C)C)C1=O` (configuration not stated) the TGI (PC-3 prostate) was 27.2 µM, the TGI (SF-268 CNS) was 5.91 µM and the GI50 (HT29 colon) was 2300 nM. It also gave a TGI (HT29 colon) of 4.7 µM, a TGI (OVCAR-3 ovarian) of 3.72 µM and a TGI (UACC-257 melanoma) of 5.26 µM. It also gave a GI50 (MOLT-4 leukemia) of 1210 nM, a TGI (MOLT-4 leukemia) of 4.15 µM and a TGI (NCI-H23 lung) of 8.18 µM. It also gave a TGI (UACC-62 melanoma) of 4.96 µM, a TGI (SR leukemia) of 2.99 µM and a TGI (MCF7 breast) of 4.34 µM.

With `COc1ccc([C@H]2c3[nH]c4ccccc4c3C[C@H]3C(=O)N(CCCCCCC(=O)NO)CC(=O)N23)cc1` the GI50 (PC-3 prostate) was 2420 nM, the TGI (PC-3 prostate) was greater than 33.3 µM and the GI50 (SF-268 CNS) was 7.7 µM. The TGI (SF-268 CNS) was greater than 33.3 µM, the GI50 (HT29 colon) was 3730 nM and the TGI (HT29 colon) was greater than 33.3 µM. For the same molecule, the GI50 (OVCAR-3 ovarian) was 1880 nM, the TGI (OVCAR-3 ovarian) was 17.4 µM and the GI50 (UACC-257 melanoma) was 1120 nM. The TGI (UACC-257 melanoma) was greater than 33.3 µM, the GI50 (MOLT-4 leukemia) was 1110 nM and the TGI (MOLT-4 leukemia) was greater than 33.3 µM. The GI50 (NCI-H23 lung) was 1960 nM, the TGI (NCI-H23 lung) was 28.7 µM and the GI50 (UACC-62 melanoma) was 705 nM. For the same molecule, the TGI (UACC-62 melanoma) was 3.97 µM, the GI50 (SR leukemia) was 1460 nM and the TGI (SR leukemia) was greater than 33.3 µM. For the same molecule, the GI50 (MCF7 breast) was 1780 nM and the TGI (MCF7 breast) was greater than 33.3 µM.
